Test results published in US20260115122A1, “PERSONAL CARE COMPOSITIONS COMPRISING PANCRATIUM MARITIMUM” (GALDERMA HOLDING SA, priority 2022, published 2026).

Test system: Normal Human Epidermal Melanocytes darkly-pigmented (NHEM-DP)
Assay: Melanin content (melanin reduction) assay
Format: cell-based
Details: 72 h treatment, test product 0.004%, n=3, FIG. 2
Protocol: Normal Human Epidermal Melanocytes—NHEMs-DP. Normal Human Epidermal Melanocytes darkly-pigmented (NHEM-DP; Thermo Fisher Scientific, C1025C) were grown in M254 medium (Thermo Fisher Scientific, M254500) supplemented with Human Melanocyte Growth Supplement (HMGS; Thermo Fisher Scientific, S0025) and antibiotics (Gentamycin, Thermo Fisher Scientific, 15710049). The cells were maintained in a humidified incubator at 37° C. with a 5% CO2 atmosphere.
At the end of treatment, NHEM-DP cells (n=3) were lysed using NaOH (1N; Merck, 109956) solution. From the collected extracts, the protein content was quantified by a colorimetric assay (Pierce Coomassie Protein Assay Kit, Thermo Fischer Scientific, 23200) using a spectrophotometer (GloMax Explorer GM3500, Microplate Reader) for reading of the optical density at 600 nm. The melanin content was determined after sample heating for 1 h at 80° C. for its solubilization and reading of the optical density at 490 nm. Afterwards, the amount of melanin was determined on the basis of a standard curve using synthetic melanin (Sigma Aldrich, 8631) and then normalized to the total protein content. […]
At the end of the treatments, intracellular melanin was extracted from cell cultures and analyzed as described in materials and methods in Example 1. […]

O=c1cc(CO)occ1O [Kojic acid]
melanin content vs untreated control: significantly decreased the melanin content
